According to patent publication US11464763B2, “Parasiticidal compositions comprising an isoxazoline active agent, methods and uses thereof” (BOEHRINGER INGELHEIM ANIMAL HEALTH USA INC., priority 2011, dated 2022):

Key:
[1] = tested on: Sarcoptes scabiei var. bovis; assay: Pour-on efficacy against Sarcoptes scabiei var. bovis (mange mites) in cattle (Example 17); format: in vivo; conditions: for % Reduction: live mite counts in scrapings
Procedure: The efficacy of two pour-on formulations of the invention comprising isoxazoline Compound A at doses of 2.5 mg/kg and 10 mg/kg were tested against natural and induced infestations with Sarcoptes scabiei var. bovis (mange mites) in cattle compared with an untreated control. Four healthy head of cattle weighing between 100 to 300 kg were used in each study group. Cattle in Group 1 were untreated (control). Cattle in Group 2 were treated on Day 0 with a pour-on formulation comprising Compound A at a concentration of 2.5% (w/v) in DES at a dose of 2.5 mg/kg; and cattle in Group 3 were treated on Day 0 with a pour-on formulation comprising Compound A at a concentration of 10% (w/v) in DES at a dose of 10 mg/kg. The formulation was applied by measuring the required amount of the solution into a marked disposable syringe and applying the material evenly along the mid-line of the back of each animal from the withers to the tail head.
Live (motile) Sarcoptes scabiei var. bovis (mange mites) were counted on days 7, 14, 20, 27, 34, 41, 48 and 55 in scrapings collected from the edges of active lesions or, if lesions regressed during the study, from the area where active lesions were at the commencement of the study. Scrapings were made from six sites with an area of at least 3 cm×3 cm in size on each animal. Tables 18A and 18B below show the efficacy of the two pour-on formulations against Sarcoptes scabiei var. bovis over 56 days. […] The long lasting efficacy of the pour-on formulations of the invention against Sarcoptes scabiei var. bovis from one topical treatment is unexpected and surprising.

Amblyomma americanum = assay: Dose characterization of spot-on formulations against Amblyomma americanum ticks in dogs (Example 4); format: in vivo
Procedure: The efficacy of a spot-on composition of the invention comprising an isoxazoline compound (Cmpd. A) in a carrier vehicle comprising either DES alone or DES+lauryl lactate (LL), against ticks (Amblyomma americanum), in dogs was studied. The compositions contained 3.0%, 4.5%, or 6.0% Cmpd. A in either DES alone or DES+lauryl lactate, which delivered doses of […], respectively, of Cmpd. A to dogs infested with A. Americanum ticks.
Seven Treatment Groups were evaluated. Treatment Group 1 was administered a placebo formulation and served as a control. Treatment Groups 2, 3 and 4 were administered a topical formulation comprising 6.0% (w/v), 4.5% (w/v) and 3.0% (w/v) of Cmpd. A in DES, respectively, corresponding to doses of 4.0 mg/kg, 3.0 mg/kg and 2.0 mg/kg, respectively. Treatment Groups 5, 6 and 7 were administered a topical formulation comprising 6.0% (w/v), 4.5% (w/v) and 3.0% (w/v) of Cmpd. A in DES+9% lauryl lactate, respectively, corresponding to doses of […], 3.0 mg/kg and 2.0 mg/kg body weight Cmpd. A, respectively.
All dogs were treated once topically on Day 0 by parting the hair and applying the solution from a syringe directly onto the skin in a single spot on the midline of the neck between the base of the skull and the shoulder blades.
All dogs were infested with approximately 50 A. americanum on Days −1, 7, 14, 21, 28, 35 and 42. Ticks were counted upon removal on Days 2, 9, 16, 23, 30, 37 and 44. The % reduction of ticks for each Group is presented Table 5 below.

`O=C(CNC(=O)c1ccc(C2=NOC(c3cc(Cl)cc(C(F)(F)F)c3)(C(F)(F)F)C2)c2ccccc12)NCC(F)(F)F` (stereo not drawn) [Compound A, 4-[5-[3-chloro-5-(trifluoromethyl)phenyl]-4,5-dihydro-5-(trifluoromethyl)-3-isoxazolyl]-N-[2-oxo-2-[(2,2,2-trifluoroethyl)amino]ethyl]-1-naphthalanecarboxamide] was tested, and the “efficacy against Sarcoptes scabiei var. bovis” value ([1]; 10% (w/v) formulation, day 14 through day 55) was 100%, the “efficacy against Sarcoptes scabiei var. bovis” value ([1]; both pour-on formulations, starting on day 7 through at least day 56) was “higher than 95%” and the “% Reduction” value ([1]; Group 2: pour-on 2.5% (w/v) in DES, 2.5 mg/kg, Day 7) was 96.7%. The “% Reduction” value ([1]; Group 2: pour-on 2.5% (w/v) in DES, 2.5 mg/kg, Day 14) was 98.2%, the “% Reduction” value ([1]; Group 2: pour-on 2.5% (w/v) in DES, 2.5 mg/kg, Day 20) was 99.6% and the “% Reduction” value ([1]; Group 2: pour-on 2.5% (w/v) in DES, 2.5 mg/kg, Day 27) was 100%. The “% Reduction” value ([1]; Group 2: pour-on 2.5% (w/v) in DES, 2.5 mg/kg, Day 34) was 100%, the “% Reduction” value ([1]; Group 2: pour-on 2.5% (w/v) in DES, 2.5 mg/kg, Day 41) was 100% and the “% Reduction” value ([1]; Group 2: pour-on 2.5% (w/v) in DES, 2.5 mg/kg, Day 48) was 100%. The “% Reduction” value ([1]; Group 2: pour-on 2.5% (w/v) in DES, 2.5 mg/kg, Day 55) was 100%, the “% Reduction” value ([1]; second line of the table, "Group 2", pour-on in DES, Day 7) was 96.8% and the “% Reduction” value ([1]; second line of the table, "Group 2", pour-on in DES, Day 14) was 100%. The “% Reduction” value ([1]; second line of the table, "Group 2", pour-on in DES, Day 20) was 100%, the “% Reduction” value ([1]; second line of the table, "Group 2", pour-on in DES, Day 27) was 100% and the “% Reduction” value ([1]; second line of the table, "Group 2", pour-on in DES, Day 34) was 100%. The “% Reduction” value ([1]; second line of the table, "Group 2", pour-on in DES, Day 41) was 100%, the “% Reduction” value ([1]; second line of the table, "Group 2", pour-on in DES, Day 48) was 100% and the “% Reduction” value ([1]; second line of the table, "Group 2", pour-on in DES, Day 55) was 100%. For the same compound, the “efficacy against Sarcoptes scabiei var. bovis” value ([1]; lower concentration pour-on formulation (Group 2), day 27 through the end of the study) was 100%, the “% Reduction Ticks” value (Amblyomma americanum; Group 2: 6.0% in DES, 4.0 mg/kg, Day 2) was 97.4% and the “% Reduction Ticks” value (Amblyomma americanum; Group 2: 6.0% in DES, 4.0 mg/kg, Day 9) was 100.0%. For the same compound, the “% Reduction Ticks” value (Amblyomma americanum; Group 2: 6.0% in DES, 4.0 mg/kg, Day 16) was 100.0%, the “% Reduction Ticks” value (Amblyomma americanum; Group 2: 6.0% in DES, 4.0 mg/kg, Day 23) was 100.0% and the “% Reduction Ticks” value (Amblyomma americanum; Group 2: 6.0% in DES, 4.0 mg/kg, Day 30) was 82.5%. For the same compound, the “% Reduction Ticks” value (Amblyomma americanum; Group 2: 6.0% in DES, 4.0 mg/kg, Day 37) was 97.9%, the “% Reduction Ticks” value (Amblyomma americanum; Group 2: 6.0% in DES, 4.0 mg/kg, Day 44) was 84.2% and the “% Reduction Ticks” value (Amblyomma americanum; Group 3: 4.5% in DES, 3.0 mg/kg, Day 2) was 90.0%. The “% Reduction Ticks” value (Amblyomma americanum; Group 3: 4.5% in DES, 3.0 mg/kg, Day 9) was 100.0%, the “% Reduction Ticks” value (Amblyomma americanum; Group 3: 4.5% in DES, 3.0 mg/kg, Day 16) was 97.6% and the “% Reduction Ticks” value (Amblyomma americanum; Group 3: 4.5% in DES, 3.0 mg/kg, Day 23) was 82.0%. The “% Reduction Ticks” value (Amblyomma americanum; Group 3: 4.5% in DES, 3.0 mg/kg, Day 30) was 70.0%, the “% Reduction Ticks” value (Amblyomma americanum; Group 3: 4.5% in DES, 3.0 mg/kg, Day 37) was 80.4% and the “% Reduction Ticks” value (Amblyomma americanum; Group 3: 4.5% in DES, 3.0 mg/kg, Day 44) was 56.0%. For the same compound, the “% Reduction Ticks” value (Amblyomma americanum; Group 4: 3.0% in DES, 2.0 mg/kg, Day 2) was 95.4%, the “% Reduction Ticks” value (Amblyomma americanum; Group 4: 3.0% in DES, 2.0 mg/kg, Day 9) was 100.0% and the “% Reduction Ticks” value (Amblyomma americanum; Group 4: 3.0% in DES, 2.0 mg/kg, Day 16) was 100.0%. For the same compound, the “% Reduction Ticks” value (Amblyomma americanum; Group 4: 3.0% in DES, 2.0 mg/kg, Day 23) was 79.5%, the “% Reduction Ticks” value (Amblyomma americanum; Group 4: 3.0% in DES, 2.0 mg/kg, Day 30) was 90.3% and the “% Reduction Ticks” value (Amblyomma americanum; Group 4: 3.0% in DES, 2.0 mg/kg, Day 37) was 57.1%. For the same compound, the “% Reduction Ticks” value (Amblyomma americanum; Group 4: 3.0% in DES, 2.0 mg/kg, Day 44) was 38.8%, the “% Reduction Ticks” value (Amblyomma americanum; Group 5: 6.0% in DES+9% lauryl lactate, 4.0 mg/kg, Day 2) was 100.0% and the “% Reduction Ticks” value (Amblyomma americanum; Group 5: 6.0% in DES+9% lauryl lactate, 4.0 mg/kg, Day 9) was 100.0%. For the same compound, the “% Reduction Ticks” value (Amblyomma americanum; Group 5: 6.0% in DES+9% lauryl lactate, 4.0 mg/kg, Day 16) was 100.0%, the “% Reduction Ticks” value (Amblyomma americanum; Group 5: 6.0% in DES+9% lauryl lactate, 4.0 mg/kg, Day 23) was 94.3% and the “% Reduction Ticks” value (Amblyomma americanum; Group 5: 6.0% in DES+9% lauryl lactate, 4.0 mg/kg, Day 30) was 100.0%. For the same compound, the “% Reduction Ticks” value (Amblyomma americanum; Group 5: 6.0% in DES+9% lauryl lactate, 4.0 mg/kg, Day 37) was 89.0%, the “% Reduction Ticks” value (Amblyomma americanum; Group 5: 6.0% in DES+9% lauryl lactate, 4.0 mg/kg, Day 44) was 84.8% and the “% Reduction Ticks” value (Amblyomma americanum; Group 6: 4.5% in DES+9% lauryl lactate, 3.0 mg/kg, Day 2) was 98.4%. For the same compound, the “% Reduction Ticks” value (Amblyomma americanum; Group 6: 4.5% in DES+9% lauryl lactate, 3.0 mg/kg, Day 9) was 100.0%, the “% Reduction Ticks” value (Amblyomma americanum; Group 6: 4.5% in DES+9% lauryl lactate, 3.0 mg/kg, Day 16) was 100.0% and the “% Reduction Ticks” value (Amblyomma americanum; Group 6: 4.5% in DES+9% lauryl lactate, 3.0 mg/kg, Day 23) was 93.1%. For the same compound, the “% Reduction Ticks” value (Amblyomma americanum; Group 6: 4.5% in DES+9% lauryl lactate, 3.0 mg/kg, Day 30) was 92.1%, the “% Reduction Ticks” value (Amblyomma americanum; Group 6: 4.5% in DES+9% lauryl lactate, 3.0 mg/kg, Day 37) was 89.0% and the “% Reduction Ticks” value (Amblyomma americanum; Group 6: 4.5% in DES+9% lauryl lactate, 3.0 mg/kg, Day 44) was 53.6%. For the same compound, the “% Reduction Ticks” value (Amblyomma americanum; Group 7: 3.0% in DES+9% lauryl lactate, 2.0 mg/kg, Day 2) was 98.4%, the “% Reduction Ticks” value (Amblyomma americanum; Group 7: 3.0% in DES+9% lauryl lactate, 2.0 mg/kg, Day 9) was 100.0% and the “% Reduction Ticks” value (Amblyomma americanum; Group 7: 3.0% in DES+9% lauryl lactate, 2.0 mg/kg, Day 16) was 100.0%. The “% Reduction Ticks” value (Amblyomma americanum; Group 7: 3.0% in DES+9% lauryl lactate, 2.0 mg/kg, Day 23) was 80.6%, the “% Reduction Ticks” value (Amblyomma americanum; Group 7: 3.0% in DES+9% lauryl lactate, 2.0 mg/kg, Day 30) was 88.9% and the “% Reduction Ticks” value (Amblyomma americanum; Group 7: 3.0% in DES+9% lauryl lactate, 2.0 mg/kg, Day 37) was 74.6%. For the same compound, the “% Reduction Ticks” value (Amblyomma americanum; Group 7: 3.0% in DES+9% lauryl lactate, 2.0 mg/kg, Day 44) was 42.4%, the efficacy against ticks (Amblyomma americanum; Treatment Group 2 (4.0 mg/kg in DES alone), through Week 3) was “at least 90%” and the efficacy against ticks (Amblyomma americanum; Treatment Groups 5 and 6 (4.0 and 3.0 mg/kg in DES+LL), through five weeks) was “at least 90%”.
